Data as given in PMC5079767 (Bioorganic & medicinal chemistry letters, 2016).
Like-named read-outs stand apart in the source and are kept apart here.

Columns and labels:
[1] = system: Escherichia coli, Bacillus subtilis, Mycobacterium smegmatis; details: cited from earlier work
[2] = molecular target: cysteine adenylation domain of HMWP2 (residues 1–1491) (Yersinia pestis, UniProt A0A2S9PH42); type: biochemical
[3] = system: aminoacyl-tRNA synthetases; type: biochemical, rabbit
Y. pestis [4] = type: cell-based, Yersinia pestis
Y. pestis [5] = details: cited from earlier work

Chain of cysteine adenylation domain of HMWP2 (residues 1–1491) (A0A2S9PH42 1-1491 limits assumed): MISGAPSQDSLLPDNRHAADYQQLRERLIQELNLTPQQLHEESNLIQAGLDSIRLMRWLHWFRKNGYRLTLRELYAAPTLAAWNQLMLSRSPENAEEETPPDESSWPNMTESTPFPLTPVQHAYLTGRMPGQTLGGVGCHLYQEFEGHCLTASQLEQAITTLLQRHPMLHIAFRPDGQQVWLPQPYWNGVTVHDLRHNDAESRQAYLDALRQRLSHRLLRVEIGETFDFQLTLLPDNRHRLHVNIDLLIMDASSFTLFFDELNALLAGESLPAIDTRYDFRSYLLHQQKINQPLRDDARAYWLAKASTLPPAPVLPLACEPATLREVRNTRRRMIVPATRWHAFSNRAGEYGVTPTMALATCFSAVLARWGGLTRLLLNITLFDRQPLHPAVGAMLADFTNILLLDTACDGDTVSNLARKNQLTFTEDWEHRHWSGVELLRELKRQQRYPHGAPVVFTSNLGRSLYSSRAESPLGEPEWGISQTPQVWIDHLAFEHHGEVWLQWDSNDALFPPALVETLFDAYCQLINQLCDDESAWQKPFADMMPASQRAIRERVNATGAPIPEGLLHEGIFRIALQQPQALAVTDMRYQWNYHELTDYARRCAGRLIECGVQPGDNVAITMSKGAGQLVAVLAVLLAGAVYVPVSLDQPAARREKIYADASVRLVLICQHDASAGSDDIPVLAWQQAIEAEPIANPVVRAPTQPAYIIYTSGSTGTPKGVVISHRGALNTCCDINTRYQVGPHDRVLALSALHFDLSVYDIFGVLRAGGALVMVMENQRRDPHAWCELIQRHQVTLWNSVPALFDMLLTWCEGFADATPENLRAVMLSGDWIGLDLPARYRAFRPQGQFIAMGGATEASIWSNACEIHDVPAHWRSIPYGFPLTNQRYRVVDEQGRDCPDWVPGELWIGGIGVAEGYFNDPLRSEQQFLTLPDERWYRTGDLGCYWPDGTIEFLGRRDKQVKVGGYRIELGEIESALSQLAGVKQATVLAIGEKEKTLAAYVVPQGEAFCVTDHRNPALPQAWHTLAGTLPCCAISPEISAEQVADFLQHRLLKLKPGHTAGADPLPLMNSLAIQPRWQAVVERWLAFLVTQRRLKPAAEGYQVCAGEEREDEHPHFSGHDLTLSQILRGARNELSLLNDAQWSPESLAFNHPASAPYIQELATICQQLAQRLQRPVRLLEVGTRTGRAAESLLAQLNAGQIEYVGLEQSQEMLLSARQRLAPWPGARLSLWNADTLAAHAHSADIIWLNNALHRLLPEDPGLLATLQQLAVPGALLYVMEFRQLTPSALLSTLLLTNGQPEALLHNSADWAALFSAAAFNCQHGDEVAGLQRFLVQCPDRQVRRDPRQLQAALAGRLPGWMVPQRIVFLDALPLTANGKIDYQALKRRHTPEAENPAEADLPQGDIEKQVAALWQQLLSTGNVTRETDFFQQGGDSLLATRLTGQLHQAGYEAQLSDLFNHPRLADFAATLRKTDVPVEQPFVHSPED

For `C[C@H](N)C(=O)NS(=O)(=O)OC[C@H]1O[C@@H](n2cnc3c(N)ncnc32)[C@H](O)[C@@H]1O` [4a, alanyl-AMS], the “penetration of bacteria above the limits of detection” value ([1]; E. coli, B. subtilis, M. smegmatis) is listed as “did not penetrate”.
For `Nc1ncnc2c1ncn2[C@@H]1O[C@H](COS(=O)(=O)NC(=O)[C@@H](O)CS)[C@@H](O)[C@H]1O` [4d, α-hydroxy-cysteyl-AMS], the “IC50 relative to alanyl-AMS (4a)” value [2] was no more than 15 fold, the “increase in HMWP2 inhibition on inclusion of β-thio group” value [2] was “≈ 2 orders of magnitude” and the “increase in inhibitory potency by β-thiol side chain” value [2] was 30–60 fold.
With `Nc1ncnc2c1nc1n2[C@@H]2O[C@H](COS(=O)(=O)NC(=O)[C@@H](O)CCC1)[C@@H](O)[C@H]2O` [5b, cyclo-lactyl-AMS] the “inhibitory activity in in vitro translation assay” value [3] was “inactive”.
With `Nc1ncnc2c1nc1n2[C@@H]2O[C@H](COS(=O)(=O)NC(=O)[C@@H](N)CCC1)[C@@H](O)[C@H]2O` [5a, cyclo-alanyl-AMS] the “inhibition of yersiniabactin production” value (Y. pestis [4]) was “did not inhibit” and the “inhibitory activity in in vitro translation assay” value [3] was “inactive”.
In the case of salicyl-AMS, the “inhibition of yersiniabactin production” value (Y. pestis [5]) is listed as “blocks yersiniabactin production”.
In the case of `Nc1ncnc2c1ncn2[C@@H]1O[C@H](COS(=O)(=O)NC(=O)[C@@H](N)CS)[C@@H](O)[C@H]1O` [4c, cysteyl-AMS], the “increase in HMWP2 inhibition on inclusion of β-thio group” value [2] is reported as “≈ 2 orders of magnitude” and the “increase in inhibitory potency by β-thiol side chain” value [2] is reported as 30–60 fold.
For `C[C@H](O)C(=O)NS(=O)(=O)OC[C@H]1O[C@@H](n2cnc3c(N)ncnc32)[C@H](O)[C@@H]1O` [4b, lactyl-AMS], the intracellular concentration ([1]; all three strains (E. coli, B. subtilis, M. smegmatis), 100 µM extracellular concentration applied) is given as 28 to 53 µM.
